Laboratory results taken from the Deep4Chem optical property database.

Assay: solvent given as SMILES

SMILES: Cc1nnc(-c2cc(-n3c4ccccc4c4ccccc43)c(-n3c4ccccc4c4ccccc43)cc2-c2nnc(C)o2)o1
- absorption maximum (in ClCCl): 353 nm

SMILES: CCOC(=O)CCCCCn1c2ccc(F)cc2c(=O)c2cc3c(cc21)c(=O)c1cc(F)ccc1n3CCCCCC(=O)OCC
- absorption maximum (in CO): 540 nm

SMILES: Cc1cc(O)c(C(C)C)cc1/N=C/c1ccc(C(F)(F)F)cc1
- absorption maximum (in C1CCCCC1): 355 nm
- absorption maximum (in C1CCOC1): 363 nm
- absorption maximum (in C1COCCO1): 361 nm
- absorption maximum (in CC#N): 357 nm
- absorption maximum (in CC(C)(C)O): 368 nm
- absorption maximum (in CC(C)O): 367 nm
- absorption maximum (in CCCCCC): 353 nm
- absorption maximum (in CCCCO): 367 nm
- absorption maximum (in CCO): 364 nm
- absorption maximum (in CCOC(C)=O): 347 nm
- absorption maximum (in CN(C)C=O): 364 nm
- absorption maximum (in CO): 361 nm
- absorption maximum (in CS(C)=O): 366 nm
- absorption maximum (in ClC(Cl)Cl): 344 nm
- absorption maximum (in ClCCl): 343 nm
- absorption maximum (in O): 358 nm
- absorption maximum (in OCCO): 363 nm

SMILES: O=P1(c2ccccc2)C(c2ccc(N(c3ccccc3)c3ccccc3)cc2)=Cc2ccccc21 (stereo unspecified)
- absorption maximum (in C1CCOC1): 408 nm
- absorption maximum (in CC#N): 407 nm
- absorption maximum (in CN(C)C=O): 410 nm
- absorption maximum (in Cc1ccccc1): 413 nm
- absorption maximum (in ClC(Cl)Cl): 418 nm
- absorption maximum (in ClCCl): 415 nm

SMILES: COc1ccc2c(c1)c1cc(OC)ccc1n2-c1ccc(S(=O)(=O)c2ccc(-n3c4ccc(OC)cc4c4cc(OC)ccc43)cc2)cc1
- absorption maximum (in Cc1ccccc1): 369.69 nm

SMILES: CC1=CC(c2ccc(N(C)C)cc2)=[N+]2C1=Nc1c(C)cc(-c3ccc(N(C)C)cc3)n1[B-]2(F)F
- absorption maximum (in C1CCOC1): 744 nm
- absorption maximum (in CS(C)=O): 774 nm
- absorption maximum (in Cc1ccccc1): 734 nm

SMILES: N#C/C(=N/Nc1ccc(C#N)cc1)c1nc(-c2ccccc2)cs1
- absorption maximum (in CC#N): 396 nm
- absorption maximum (in CCO): 398 nm
- absorption maximum (in CN(C)C=O): 477 nm
- absorption maximum (in Cc1ccccc1): 401 nm
- absorption maximum (in ClCCl): 399 nm

SMILES: COc1cc(/C=C2/SC(=O)NC2=O)cc(OC)c1O
- absorption maximum (in C1CCCCC1): 354 nm
- absorption maximum (in C1COCCO1): 367 nm
- absorption maximum (in CC#N): 362 nm
- absorption maximum (in CN(C)C=O): 341 nm
- absorption maximum (in CO): 359 nm
- absorption maximum (in O): 358 nm
- absorption maximum (in OCC(O)CO): 364 nm
- absorption maximum (in OCCO): 370 nm

SMILES: C(/C=C/c1cc2c3c(c1)CCCN3CCC2)=C\c1ccncc1
- absorption maximum (in C1COCCO1): 413 nm
- absorption maximum (in CC#N): 413 nm
- absorption maximum (in CCCCCCC): 403 nm
- absorption maximum (in CO): 419 nm

SMILES: CN1CCN(c2cccc(/C=C/c3ncc(-c4ccc(OCc5ccccc5)c(OCc5ccccc5)c4)o3)c2)CC1
- absorption maximum (in ClCCl): 354 nm

SMILES: COC(=O)C(NC(=O)OC(C)(C)C)c1ccc2oc(-c3ccc(C#N)cc3)nc2c1 (stereo unspecified)
- absorption maximum (in CC1CCCCC1): 337 nm
- absorption maximum (in CC#N): 333 nm
- absorption maximum (in CO): 317 nm

SMILES: CC1(C)C(=O)C=Cc2ccc(O)cc21
- absorption maximum (in O): 341 nm

SMILES: COc1ccc(NC(=O)C(C(=O)Nc2ccc(OC)cc2)C(c2ccccc2O)c2c(C)[nH]c3ccccc23)cc1 (stereo unspecified)
- absorption maximum (in CO): 258 nm
- absorption maximum (in CS(C)=O): 266 nm

SMILES: CCOC(=O)/C=C/C1=C(c2ccc(C)cc2)C2=Nc3c(-c4ccc(C)cc4)c(Br)c(-c4ccc(C)cc4)n3[B-](F)(F)[N+]2=C1c1ccc(C)cc1
- absorption maximum (in ClC(Cl)Cl): 666 nm

SMILES: COC(=O)c1ccc(/C=C2\C=C(c3ccc(C#N)cc3)N(CC(C)C)C2=O)cc1
- absorption maximum (in C1COCCO1): 438 nm

SMILES: c1ccc(-n2c(-c3ccccc3-n3c4ccccc4c4ccccc43)nc3ccccc32)cc1
- absorption maximum (in C1CCOC1): 352 nm

SMILES: CCOC(=O)c1c(-c2cc3ccccc3oc2=O)nn(-c2ccccc2)c1C(=O)OCC
- absorption maximum (in ClCCl): 323 nm

SMILES: O=c1c2cc(S(=O)(=O)Cl)ccc2[nH]c2ccc(S(=O)(=O)Cl)cc12
- absorption maximum (in CS(C)=O): 399 nm

SMILES: CN1c2ccccc2C(O)(c2ccccc2)c2cc([N+](=O)[O-])ccc21 (stereo unspecified)
- absorption maximum (in C1CCOC1): 392.4 nm
- absorption maximum (in CC#N): 396.9 nm
- absorption maximum (in CCO): 393.7 nm
- absorption maximum (in CO): 396 nm
- absorption maximum (in CS(C)=O): 410 nm
- absorption maximum (in Cc1ccccc1): 381.5 nm

SMILES: CCOC(=O)COc1ccc(C(c2c(C)[nH]c3ccccc23)c2c(C)[nH]c3ccccc23)cc1OC
- absorption maximum (in CC#N): 290 nm
- absorption maximum (in CO): 291 nm
- absorption maximum (in O): 290 nm

SMILES: CCCCN1c2ccccc2Sc2cc(/C=C/C3=Nc4ccc5ccccc5c4C3(C)C)ccc21
- absorption maximum (in C1CCCCC1): 414 nm
- absorption maximum (in C1COCCO1): 417 nm
- absorption maximum (in CCOC(C)=O): 416 nm
- absorption maximum (in CCOCC): 414 nm
- absorption maximum (in Cc1ccccc1): 423 nm

SMILES: COc1ccc(-c2cc(-c3ccccc3)c3n2[B-](F)(F)[N+]2=C4C=NC=CN4[B-](F)(F)[N+]2=C3)cc1
- absorption maximum (in ClCCl): 534 nm

SMILES: N#Cc1c2oc3ccccc3oc2c(C#N)c2oc3ccccc3oc12
- absorption maximum (in ClC(Cl)Cl): 430 nm

SMILES: c1ccc(/C(=C(\c2ccccc2)c2ccccc2-c2ccc(-c3ccccc3)cc2)c2ccccc2-c2ccc(-c3ccccc3)cc2)cc1
- absorption maximum (in C1CCOC1): 280 nm

SMILES: CCC1=C(C)C2=C(c3c4ccccc4c(-c4ccccc4)c4ccccc34)c3c(C)c(CC)c(C)n3[B-](F)(F)[N+]2=C1C
- absorption maximum (in CC#N): 528 nm
- absorption maximum (in CCCCCC): 531 nm
- absorption maximum (in CCO): 529 nm
- absorption maximum (in CN(C)C=O): 530 nm
- absorption maximum (in Cc1ccccc1): 534 nm
- absorption maximum (in ClCCl): 532 nm

SMILES: C(=C\c1nc2ccccc2s1)/c1ccc(-c2nc3c4cccnc4c4ncccc4c3[nH]2)cc1
- absorption maximum (in C1CCOC1): 386 nm
- absorption maximum (in CC#N): 380 nm
- absorption maximum (in CO): 375 nm
- absorption maximum (in ClCCl): 384 nm

SMILES: CC(C)c1cccc(C(C)C)c1-n1c(=O)c2cc3nc(-c4ccccc4)c4cc5c(=O)n(-c6c(C(C)C)cccc6C(C)C)c(=O)c6cc7c(-c8ccccc8)nc8cc(c1=O)c2c1c3c4c(c56)c7c81
- absorption maximum (in ClC(Cl)Cl): 480 nm

SMILES: CCCCC(CC)CN1C(=O)c2cc(Oc3ccc(C(C)(C)C)cc3)c3c4c(Cl)cc5c6c(cc(Cl)c(c7c(Oc8ccc(C(C)(C)C)cc8)cc(c2c37)C1=O)c64)C(=O)N(c1c(C(C)C)cccc1C(C)C)C5=O (stereo unspecified)
- absorption maximum (in Cc1ccccc1): 560 nm

SMILES: COc1ccc2c(c1)CCC1=C(C#Cc3cc4ccccc4c4ccccc34)O[B-](F)(F)[O+]=C12
- absorption maximum (in ClCCl): 465 nm

SMILES: FC(F)(F)c1ccccc1B1c2ccccc2Nc2ccccc21
- absorption maximum (in ClCCl): 386 nm

SMILES: CC1(C)CCc2c(c3ccccc3c3nc4c5c(c6ccccc6c4nc23)OC(C)(C)CC5)O1
- absorption maximum (in C1CCOC1): 458.09 nm
- absorption maximum (in C1COCCO1): 459.98 nm
- absorption maximum (in CC#N): 459.98 nm
- absorption maximum (in CC(C)O): 454.96 nm
- absorption maximum (in CCCCCC): 452.08 nm
- absorption maximum (in CN(C)C=O): 458.93 nm
- absorption maximum (in CO): 457.04 nm
- absorption maximum (in ClC(Cl)Cl): 461.04 nm
- absorption maximum (in c1ccccc1): 459.98 nm

SMILES: Oc1ccccc1/C=N/N=C/c1ccccc1O
- absorption maximum (in CC#N): 355 nm
- absorption maximum (in CC(C)CCCC(C)CCCC(C)CCCCC(C)CCCC(C)CCCC(C)C): 363 nm
- absorption maximum (in CCCCCC): 361 nm
- absorption maximum (in CCCCCCCCC): 362 nm
- absorption maximum (in CCCCCCCCCCCCCCCC): 363 nm
- absorption maximum (in CCCCl): 359 nm
- absorption maximum (in CCN(CC)CC): 359 nm
- absorption maximum (in CCO): 356 nm
- absorption maximum (in CCOCC): 358 nm
- absorption maximum (in CO): 355 nm
- absorption maximum (in O=C(O)C(F)(F)F): 398 nm
- absorption maximum (in OC(C(F)(F)F)C(F)(F)F): 345 nm
- absorption maximum (in OCC(F)(F)F): 350 nm
- absorption maximum (in OCCO): 357 nm

SMILES: CCC1=C(C)C2=Cc3c4ccccc4c4n3[B-](c3ccncc3)(Oc3ccccc3-4)[N+]2=C1C (stereo unspecified)
- absorption maximum (in CC#N): 621 nm
- absorption maximum (in CCCCCC): 625 nm
- absorption maximum (in Cc1ccccc1): 629 nm
- absorption maximum (in ClCCl): 627 nm

SMILES: O=P1(c2ccccc2)c2ccccc2-n2cccc21 (stereo unspecified)
- absorption maximum (in ClCCl): 290 nm

SMILES: COc1ccc2c3ccc(OC)cc3c3cc4c(C)cc(=O)oc4cc3c2c1
- absorption maximum (in ClC(Cl)Cl): 365 nm

SMILES: Cc1ccc(C(=O)/N=c2\oc3cccc4c5c(-c6ccccc6)oc6cccc(c(c2-c2ccccc2)c34)c65)cc1
- absorption maximum (in ClC(Cl)Cl): 385 nm

SMILES: CCCCCCCCCCCCN1C(=O)c2c(c3ccc4cc(-c5ccc(C)cc5)c(OC)cc4c3c3c2ccc2cc(-c4ccc(C)cc4)c(OC)cc23)C1=O
- absorption maximum (in ClCCl): 436 nm

SMILES: CC(C)[Si](C#Cc1c2cc3ccccc3cc2c(C#Cc2ccc(F)cc2)c2cc3ccccc3cc12)(C(C)C)C(C)C
- absorption maximum (in ClCCl): 651 nm

SMILES: CCCC1(CCC)c2ccccc2-c2ccc(-c3ccc4c(c3)C(CCC)(CCC)c3cc(-c5ccc6c(c5)C(CCC)(CCC)c5cc(-c7ccc8c(c7)C(CCC)(CCC)c7ccccc7-8)ccc5-6)ccc3-4)cc21
- absorption maximum (in C1CCCCC1): 360 nm

SMILES: CC(C)[Si]1(C(C)C)c2cc(C=O)ccc2-c2ccc(N(c3ccccc3)c3ccccc3)cc21
- absorption maximum (in C1CCCCC1): 403 nm
- absorption maximum (in CC#N): 392 nm
- absorption maximum (in CCO): 396 nm
- absorption maximum (in CCOCC): 393 nm
- absorption maximum (in CS(C)=O): 398 nm
- absorption maximum (in ClCCl): 401 nm
- absorption maximum (in c1ccccc1): 398 nm

SMILES: CCCCc1ccc2ccc3c(CCCC)ccc4ccc1c2c43
- absorption maximum (in CCCCCC): 344 nm
- absorption maximum (in CO): 344 nm
- absorption maximum (in ClCCl): 347 nm

SMILES: COc1ccccc1-c1nc2c([nH]1)C1=CC(=O)S[C@]1(C)[C@@]1(C)SC(=O)C=C21
- absorption maximum (in CC#N): 390 nm

SMILES: O=C(O)c1cc2c(ccc3ccccc32)oc1=O
- absorption maximum (in C1COCCO1): 372 nm
- absorption maximum (in CC#N): 376 nm
- absorption maximum (in CCCCO): 372 nm
- absorption maximum (in CCO): 363 nm
- absorption maximum (in CO): 364 nm
- absorption maximum (in O): 376 nm

SMILES: O=C1c2ccccc2-c2nc3ccccc3n21
- absorption maximum (in ClCCl): 340 nm

SMILES: CCOC(=O)c1cc(C(=O)OCC)c2cc(N(C)C)ccc2n1
- absorption maximum (in CCO): 443 nm
